Source: ChEMBL document CHEMBL4483862, “Open-source discovery of chemical leads for next-generation chemoprotective antimalarials” (2018)

Test system: Plasmodium berghei
Assay: Luciferase/luciferin-expressing antifolate-resistant parasites were used to infect a culture of HepG2 cells that were pre-incubated with compounds. Infected hepatocytes emit light due to the luciferase reaction. Assay results are presented as the percent inhibition of light emission compared to control. […]
Format: functional
Details: sporozoite; for IC90: read-out: LUCIFERASE INFECTION ASSAY - IC90
[1] = read-out: LUCIFERASE INFECTION ASSAY - IC50

| SMILES | IC90 [µM] | further results |
| --- | --- | --- |
| Cc1ccc(N(Cc2ccccc2)S(=O)(=O)c2ccc(S(C)(=O)=O)cc2)cc1 | > 10 | IC50 (PBLUC_HILL_SLOPE 2.12, PBLUC_R_SQUARED 0.413, read-out: LUCIFERASE INFECTION ASSAY - IC50): 5.72 µM |
| CCN1C(=O)N(Cc2cccc(OC)c2)C(=O)C12CCN(C(C)CCc1c[nH]c3ccccc13)CC2 (centres undefined) | 5.56 | IC50 (HEPG2TOX_HILL_SLOPE 4.28, HEPG2TOX_R_SQUARED 0.784, PBLUC_HILL_SLOPE 3.57, PBLUC_R_SQUARED 0.572, read-out: LUCIFERASE INFECTION ASSAY - IC50): 3 µM |
| CSc1nc(N2CCNCC2)c2sc3c(c2n1)CCCC3 | > 10.3 | IC50 (PBLUC_HILL_SLOPE 1.21, PBLUC_R_SQUARED 0.0625, read-out: LUCIFERASE INFECTION ASSAY - IC50): > 10.3 µM |
| COc1cc(NC(=O)Nc2cc(Cl)cc(Cl)c2)cc(C(F)(F)F)c1 | 0.748 | IC50 (HEPG2TOX_HILL_SLOPE 3.42, HEPG2TOX_R_SQUARED 0.986, PBLUC_HILL_SLOPE 0.84, PBLUC_R_SQUARED 0.7, read-out: LUCIFERASE INFECTION ASSAY - IC50): 0.0547 µM |
| CCCNC(=O)c1c(NC(=O)c2ccc(F)cc2F)nc2ccccn12 | 8.71 | IC50 (HEPG2TOX_HILL_SLOPE 7.34, HEPG2TOX_R_SQUARED 0.716, PBLUC_HILL_SLOPE 2.53, PBLUC_R_SQUARED 0.731, read-out: LUCIFERASE INFECTION ASSAY - IC50): 3.66 µM |
| CCCCC(=O)NNC(=O)c1nn(-c2ccccc2)cc1O | 6.61 | IC50 (HEPG2TOX_HILL_SLOPE 1.96, 5.56, HEPG2TOX_R_SQUARED 0.938, 0.275, PBLUC_HILL_SLOPE 4.09, 13.0, PBLUC_R_SQUARED 0.105, 0.390, read-out: LUCIFERASE INFECTION ASSAY - IC50): 4.4 µM |
| CCOC(=O)c1c(C)oc(NC(=O)CSc2nnc(-c3ccccc3)n2-c2ccc(C)c(C)c2)c1C#N | > 10 | IC50 [1]: > 10 µM |
| COc1ccc(-c2cnc3cnc(-c4ccccc4N(C)C)cn23)cc1 | 0.409 | IC50 (HEPG2TOX_HILL_SLOPE 0.622, HEPG2TOX_R_SQUARED 0.863, PBLUC_HILL_SLOPE 8.14, PBLUC_R_SQUARED 0.832, read-out: LUCIFERASE INFECTION ASSAY - IC50): 0.312 µM |
| Fc1ccccc1-n1cnnc1SC(c1ccccc1)c1ccccc1 | 1.93 | IC50 (PBLUC_HILL_SLOPE 1.8, PBLUC_R_SQUARED 0.792, read-out: LUCIFERASE INFECTION ASSAY - IC50): 0.57 µM |
| COc1ccccc1-c1noc(-c2cc3c(s2)CCCCC3)n1 | 0.846 | IC50 (FFLUC_HILL_SLOPE 2.02, FFLUC_R_SQUARED 0.0931, PBLUC_HILL_SLOPE 0.909, PBLUC_R_SQUARED 0.727, read-out: LUCIFERASE INFECTION ASSAY - IC50): 0.0754 µM |
| O=C(Nc1ccc(Cl)c(Cl)c1)Nc1ccnn1C1CCCCC1 | > 10 | IC50 (PBLUC_HILL_SLOPE 0.873, PBLUC_R_SQUARED 0.34, read-out: LUCIFERASE INFECTION ASSAY - IC50): > 10 µM |
| Cc1ccc2c(Cl)cc(Cl)c(Oc3ncnc4scc(-c5ccc(Cl)cc5)c34)c2n1 | > 10 | IC50 (PBLUC_HILL_SLOPE 0.397, PBLUC_R_SQUARED 0.123, read-out: LUCIFERASE INFECTION ASSAY - IC50): > 10 µM |
| Cc1cc(C(=O)Oc2ccccc2C(N)=O)c(C)n1Cc1ccco1 | 1.27 | IC50 (PBLUC_HILL_SLOPE 14.9, PBLUC_R_SQUARED 0.682, read-out: LUCIFERASE INFECTION ASSAY - IC50): 1.09 µM |
| O=C(OCC(=O)N1CCN(c2ccccc2)CC1)c1cccnc1Nc1cccc(C(F)(F)F)c1 | > 10 | IC50 [1]: > 10 µM |
| Cc1ccc(-n2c(C)cc(C(=O)COC(=O)c3cccn3C)c2C)cc1 | > 10 | IC50 (PBLUC_HILL_SLOPE 1.64, PBLUC_R_SQUARED 0.0485, read-out: LUCIFERASE INFECTION ASSAY - IC50): 5.54 µM |
| Cc1cc(C(=O)COC(=O)c2ccccc2OCC(=O)Nc2cccc(C(F)(F)F)c2)c(C)n1CC1CCCO1 (centres undefined) | > 10 | IC50 [1]: > 10 µM |
| C=CCN(c1ccc(C(=O)Nc2ccc(C(F)(F)F)cc2)cc1)S(C)(=O)=O | 7.12 | IC50 (HEPG2TOX_HILL_SLOPE 1.13, HEPG2TOX_R_SQUARED 0.916, PBLUC_HILL_SLOPE 2.09, PBLUC_R_SQUARED 0.336, read-out: LUCIFERASE INFECTION ASSAY - IC50): 2.49 µM |
| CNc1nc2cnc(-c3ccccc3C)cc2n1-c1cccc(F)c1 | > 10 | IC50 [1]: > 10 µM |
| Cc1ccc(-c2nn(-c3ccccc3)cc2/C=C/C(=O)NCc2ccc(-n3ccnc3)nc2)cc1 | > 10 | IC50 (PBLUC_HILL_SLOPE 2.1, PBLUC_R_SQUARED 0.668, read-out: LUCIFERASE INFECTION ASSAY - IC50): 5.12 µM |

| SMILES | IC90 [µM] | further results |
| --- | --- | --- |
| CCOc1ccc(C(=O)CN(C#N)C(=O)c2ccccc2)cc1 | 0.758 | IC50 (HEPG2TOX_HILL_SLOPE 0.95, HEPG2TOX_R_SQUARED 0.917, PBLUC_HILL_SLOPE 159, PBLUC_R_SQUARED 0.609, read-out: LUCIFERASE INFECTION ASSAY - IC50): 0.747 µM |
| Nc1c(-c2ccccc2)c(CN2CCN(Cc3ccccc3)CC2)nn1-c1ccc(Cl)cc1 | 8.97 | IC50 (HEPG2TOX_HILL_SLOPE 3.47, HEPG2TOX_R_SQUARED 0.813, PBLUC_HILL_SLOPE 2.28, PBLUC_R_SQUARED 0.79, read-out: LUCIFERASE INFECTION ASSAY - IC50): 3.42 µM |
| Cc1cc(C(=O)ONC(=N)c2ccccc2)nn1C(C)(C)C | 1.23 | IC50 (FFLUC_HILL_SLOPE 2.36, FFLUC_R_SQUARED 0.364, PBLUC_HILL_SLOPE 1.16, PBLUC_R_SQUARED 0.78, read-out: LUCIFERASE INFECTION ASSAY - IC50): 0.186 µM |
| Cc1ccc(CCC2CCN(C(=O)CCCNC3=NS(=O)(=O)c4ccccc43)CC2)cc1 | 3.84 | IC50 (HEPG2TOX_HILL_SLOPE 10.3, HEPG2TOX_R_SQUARED 0.945, PBLUC_HILL_SLOPE 12.1, PBLUC_R_SQUARED 0.567, read-out: LUCIFERASE INFECTION ASSAY - IC50): 3.2 µM |
| CCN(CC)c1ccc(NC(=O)c2ccc(C)cc2)c(N(CC)CC)n1 | > 9.31 | IC50 [1]: > 9.31 µM |
| COc1ccc(Nc2nccc3nc(-c4ccc(C)cc4)[nH]c23)cc1 | > 10 | IC50 (HEPG2TOX_HILL_SLOPE 7.88, HEPG2TOX_R_SQUARED 0.839, PBLUC_HILL_SLOPE 3.67, PBLUC_R_SQUARED 0.381, read-out: LUCIFERASE INFECTION ASSAY - IC50): 7.4 µM |
| Cc1cccc(C)c1NC(=O)N1[C@@H]2CC[C@@H](C2)[C@H]1c1nc2cccc(OCc3ccc(F)cc3)c2[nH]1 | > 10 | IC50 (PBLUC_HILL_SLOPE 4.64, PBLUC_R_SQUARED 0.011, read-out: LUCIFERASE INFECTION ASSAY - IC50): > 10 µM |
| CN(C)CCOCCOc1c(Cl)cc(Cl)cc1Cl | > 10 | IC50 [1]: > 10 µM |
| O=C1C=C(c2ccc(Cl)cc2)C(=O)N1Nc1ccc(Cl)cc1Cl | > 8.98 | IC50 (FFLUC_HILL_SLOPE 15.4, FFLUC_R_SQUARED 0.324, HEPG2TOX_HILL_SLOPE 12.8, HEPG2TOX_R_SQUARED 0.543, PBLUC_HILL_SLOPE 10.1, PBLUC_R_SQUARED 0.012, read-out: LUCIFERASE INFECTION ASSAY - IC50): 8.35 µM |
| CSc1nnnn1-c1cccc(NC(=O)c2cc(-c3cccs3)nc3c2cnn3C(C)C)c1 | > 10 | IC50 (PBLUC_HILL_SLOPE 6.42, PBLUC_R_SQUARED 0.137, read-out: LUCIFERASE INFECTION ASSAY - IC50): > 10 µM |
| Cc1nn(-c2ccc(F)cc2)c(C)c1/C=C/C(=O)OCC(=O)Nc1cc(S(=O)(=O)N2CCOCC2)ccc1Cl | > 10 | IC50 [1]: > 10 µM |
| Nc1ncc(-c2ccccc2Oc2ccccc2)cc1-c1ccc(O)cc1 | > 9.31 | IC50 (FFLUC_HILL_SLOPE 1.5, FFLUC_R_SQUARED 0.249, PBLUC_HILL_SLOPE 4.63, PBLUC_R_SQUARED 0.261, read-out: LUCIFERASE INFECTION ASSAY - IC50): 6.66 µM |
| CCOC(=O)c1c(C)[nH]c(C(=O)C(C)OC(=O)c2c3c(nc4ccccc24)/C(=C/c2ccc(F)cc2)CCC3)c1C (centres undefined) | > 10 | IC50 (HEPG2TOX_HILL_SLOPE 0.182, HEPG2TOX_R_SQUARED 0.103, read-out: LUCIFERASE INFECTION ASSAY - IC50): > 10 µM |
| CCOC(=O)c1c(NC(=O)CSc2nnc3n(-c4c(C)cccc4C)c(=O)c4ccccc4n23)sc(C(C)=O)c1C | 5.29 | IC50 (FFLUC_HILL_SLOPE 2.66, FFLUC_R_SQUARED 0.447, PBLUC_HILL_SLOPE 3.22, PBLUC_R_SQUARED 0.684, read-out: LUCIFERASE INFECTION ASSAY - IC50): 2.67 µM |
| Cc1cnc(-c2nc(-c3ccccc3)c3n2CCN(Cc2ccc(C4CCCCO4)s2)C3)cn1 (centres undefined) | > 7 | IC50 (PBLUC_HILL_SLOPE 1.74, PBLUC_R_SQUARED 0.822, read-out: LUCIFERASE INFECTION ASSAY - IC50): 3.61 µM |
| Cc1cccc(COc2cccc(C(=O)N3CCC(C(=O)NCc4ccccc4)CC3)c2)c1 | > 10 | IC50 (HEPG2TOX_HILL_SLOPE 5.74, HEPG2TOX_R_SQUARED 0.455, read-out: LUCIFERASE INFECTION ASSAY - IC50): > 10 µM |
| CC1CCc2c(C(=O)Nc3cccc(Br)c3)csc2C1 (centres undefined) | > 9.42 | IC50 (PBLUC_HILL_SLOPE 12.9, PBLUC_R_SQUARED 0.0655, read-out: LUCIFERASE INFECTION ASSAY - IC50): 9.3 µM |
| O=C(Nc1ccccc1Nc1cc(-c2ccccc2)nn1-c1ccccc1)c1ccc([N+](=O)[O-])cc1 | > 10 | IC50 (PBLUC_HILL_SLOPE 1.78, PBLUC_R_SQUARED 0.355, read-out: LUCIFERASE INFECTION ASSAY - IC50): 8.66 µM |
